Test results: patent US8192962B2, “Processes for detecting toxic substances” (Daikin Industries, Ltd., priority 2001, dated 2012)

Tested on: Mitochondria-located protein genes
Assay: DNA chip mRNA expression in yeast, mitochondria-located protein genes (Table 2)
Type: cell-based, Saccharomyces cerevisiae S288C
Conditions: cells incubated two hours with the chemical substance
Outline: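 S. cerevisiae S288C grown at 25° C in YPD were exposed in log phase for two hours to one toxic chemical at a growth-inhibiting, non-lethal concentration; untreated cells served as control. Poly(A) mRNA was reverse-transcribed with Cy3/Cy5-dUTP and hybridized to a whole-genome yeast DNA chip at 65° C for over 12 hours; values are fluorescence ratios versus untreated.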

Measured: The level of expressed mRNA in the presence of chemical substance/The level of expressed mRNA in the absence of chemical substance

CCCCCCCCCCCCOS(=O)(=O)[O-].[Na+] [(18), sodium lauryl sulfate]
0.9: yeast gene YER178W | yeast gene YFL016C | yeast gene YJR045C | yeast gene YMR152W | yeast gene YNL104C
0.7: yeast gene YBL022C | yeast gene YJL133W | yeast gene YLR304C | yeast gene YMR203W
1.2: yeast gene YBL099W | yeast gene YBR282W | yeast gene YDR347W | yeast gene YJL096W | yeast gene YKL003C | yeast gene YNL071W | yeast gene YOL096C | yeast gene YPL262W | yeast gene YPR134W
1.5: yeast gene YBR122C | yeast gene YEL024W | yeast gene YGR076C | yeast gene YLR295C | yeast gene YPR047W
2.3: yeast gene YDR178W | yeast gene YDR529C | yeast gene YGR174C | yeast gene YLR395C
1.7: yeast gene YDL067C | yeast gene YGL191W | yeast gene YKL016C | yeast gene YLL041C | yeast gene YNL055C | yeast gene YOR020C | yeast gene YPL135W | yeast gene YPR037C
2.6: yeast gene YGR028W
4.0: yeast gene YJL166W
2.4: yeast gene YGL187C | yeast gene YMR035W
0.6: yeast gene YNL256W
1.9: yeast gene YBL038W
1.3: yeast gene YBR003W | yeast gene YBR044C | yeast gene YBR185C | yeast gene YCR083W | yeast gene YDR079W | yeast gene YDR231C | yeast gene YDR258C | yeast gene YML129C | yeast gene YMR267W | yeast gene YOR150W | yeast gene YOR187W | yeast gene YPL134C
2.1: yeast gene YLR038C | yeast gene YOR176W
1.4: yeast gene YBR251W | yeast gene YDL181W | yeast gene YIL155C | yeast gene YJL180C | yeast gene YJR121W | yeast gene YKL170W | yeast gene YMR023C
1.6: yeast gene YDR298C | yeast gene YML054C | yeast gene YML120C | yeast gene YOR037W
3.6: yeast gene YKL142W
1.1: yeast gene YAL039C | yeast gene YBL030C | yeast gene YCL057W | yeast gene YDL198C | yeast gene YEL039C | yeast gene YGR062C | yeast gene YJL102W | yeast gene YKL194C | yeast gene YKR066C | yeast gene YMR083W | yeast gene YMR089C | yeast gene YOR130C | yeast gene YPL040C | yeast gene YPL215W
1.8: yeast gene YKL141W
3.1: yeast gene YGR244C
1.0: yeast gene YBR091C | yeast gene YBR221C | yeast gene YCR046C | yeast gene YGL018C | yeast gene YHR008C | yeast gene YKL148C | yeast gene YLR259C | yeast gene YLR348C | yeast gene YNL073W | yeast gene YOR142W | yeast gene YOR316C
0.8: yeast gene YGR082W | yeast gene YJR077C | yeast gene YOR100C | yeast gene YPR024W
2.5: yeast gene YDR377W
4.2: yeast gene YGR008C
